{"source": "patent US5595983A", "about": "“Substituted piperazine 2-carboxylic acids useful in the treatment of central nervous system disorders” (British Technology Group Limited, priority 1984, dated 1997)", "key": {"[1]": {"system": "motoneurones in the spinal cord", "assay": "Depression of monosynaptic (MS) and polysynaptic (PS) excitation of motoneurones in isolated hemisected spinal cord, elicited by dorsal root stimulation", "format": "cell-based, rat", "conditions": "for inhibition at 500 µM: test conc. 500 μM; for inhibition at 100 µM: test conc. 100 μM", "excerpt": "To evaluate actions of substances at amino acid receptors on nerve cells (neurones), the substances may be tested on spinal cord neurones, which have similar characteristics to nerve cells in the brain.\n^1 Monosynaptic (MS) and polysynaptic (PS) excitation of motoneurones\nin the spinal cord from 4-8 day old rats was elicited by electrical\nstimulation of a dorsal root and recorded from the corresponding ventral\nroot. Figures relate to the depression of the magnitude of the two\ncomponents as measured respectively from oscilloscope traces and chart"}, "[2]": {"system": "3-mercaptopropionate-induced convulsions", "assay": "Anticonvulsant activity against 3-mercaptopropionate-induced convulsions in mice", "format": "in vivo", "conditions": "for Anti-convulsant Activity (mice): relative anticonvulsant potency: mice injected with 3-MP 100 mg/kg, 3-MP and phosphonates subcutaneously, relative to AP7 = 1.0", "method": "^2 Relative anticonvulsant potencies of substances in mice injected\nwith 3mercaptopropionic acid (3MP), 100 mg/kg; 3MP and the phosphonates"}, "neuronal NMDA receptors": {"system": "neuronal NMDA receptors", "assay": "Relative potency as antagonists of NMDA-induced motoneuronal depolarization in spinal cord of 4-day-old rat", "format": "cell-based", "conditions": "4-day-old rat spinal cord; bath administration; relative to AP5 = 1.0 (higher = more potent)", "excerpt": "(§1) ^1 Relative potencies of substances as antagonists of NMDAinduced\n(§2) motoneuronal depolarization and as depressants of spontaneous and dorsal\n(§3) rootevoked ventral root synaptic potentials in spinal cord of 4day-old\n(§4) rat; bath administration of drugs.\n(§5) 1 Relative potencies of substances as antagonists of NMDA-induced motoneuronal depolarization and as depressants of spontaneous and dorsal root-evoked ventral root synaptic potentials in spinal cord of 4-day-old rat; bath administration of drugs."}, "[3]": {"system": "ventral root synaptic potentials in spinal cord", "assay": "Relative potency as depressants of spontaneous and dorsal root-evoked ventral root synaptic potentials in spinal cord of 4-day-old rat", "format": "cell-based", "conditions": "4-day-old rat spinal cord, bath administration, relative to AP5 = 1.0", "excerpt": "as §1, §2, §3, §4, §5"}, "[4]": {"system": "N-methyl-D-aspartate (NMDA) receptors", "assay": "Reversal of NMDA-induced motoneuronal depolarization, isolated 4-8 day old rat spinal cord", "format": "cell-based", "conditions": "Table 2"}, "[5]": {"system": "quisqualate (Q) receptors", "assay": "Reversal of quisqualate-induced motoneuronal depolarization, isolated 4-8 day old rat spinal cord", "format": "cell-based", "conditions": "Table 2"}, "kainate (K) receptors": {"system": "kainate (K) receptors", "assay": "Reversal of kainate-induced motoneuronal depolarization, isolated 4-8 day old rat spinal cord", "format": "cell-based", "conditions": "Table 2"}, "[6]": {"conditions": "monosynaptic component, 4-8 day old rat spinal cord, read-out: Synaptic Excitation Percent depression MS"}, "[7]": {"conditions": "polysynaptic component, 4-8 day old rat spinal cord, read-out: Synaptic Excitation Percent depression PS"}}, "note": "Like-named read-outs stand apart in the source and are kept apart here."}
{"molecule": "N[C@H](CCC(=O)NCC(=O)O)C(=O)O", "note": "[γDGG, γ-D-glutamylglycine, reference compound]", "values": [{"measurement": "inhibition at 700 µM", "setting": "[1]; monosynaptic component, test conc. 700 μM, 4-8 day old rat spinal cord, read-out: Synaptic Excitation Percent depression MS", "result": 24, "unit": "%"}]}
{"molecule": "NC(CCCP(=O)(O)O)C(=O)O", "note": "(racemic) [AP5, 2-amino-5-phosphonopentanoic acid, reference compound]", "values": [{"measurement": "inhibition at 2 µM", "setting": "[1]; polysynaptic component, test conc. 2 μM, 4-8 day old rat spinal cord, read-out: Synaptic Excitation Percent depression PS", "result": 27, "unit": "%"}, {"measurement": "Anti-convulsant Activity (mice): relative anticonvulsant potency", "setting": "[2]", "result": 0.1}]}
{"molecule": "O=C(O)C1CN(CCCS(=O)(=O)O)CCN1", "note": "(racemic) [CPS, 3-(±)-2-carboxypiperazin-4-yl)-propane-1-sulphonic acid]", "values": [{"measurement": "inhibition at 500 µM", "setting": "[1]; [6]", "result": 6, "unit": "%"}, {"measurement": "inhibition at 500 µM", "setting": "[1]; [7]", "result": 32, "unit": "%"}]}
{"molecule": "O=C(O)C1CN(CCCP(=O)(O)O)CCN1", "note": "(racemic) [CPP, 3-((±)-2-carboxypiperazin-4-yl)propyl-1-phosphonic acid]", "values": [{"measurement": "Depression of NMDA-induced excitation in rat spinal cord: relative potency (NMDA)", "setting": "neuronal NMDA receptors", "result": 6}, {"measurement": "Potency as antagonist of polysynaptic spinal excitation compared with AP5 and AP7", "setting": "[1]; Table 2", "result": "more potent"}, {"measurement": "inhibition at 0.5 µM", "setting": "[1]; polysynaptic component, test conc. 0.5 μM (printed 0 · 5), 4-8 day old rat spinal cord, read-out: Synaptic Excitation Percent depression PS", "result": 28, "unit": "%"}, {"measurement": "Depression of synaptic excitation in rat spinal cord: relative potency (Synaptic)", "setting": "[3]", "result": 4}, {"measurement": "Anticonvulsant activity compared with AP7", "setting": "[2]; 3-mercaptopropionate-induced convulsions in mice, from Table 3", "result": "significantly higher anticonvulsant activity than AP7"}, {"measurement": "Anti-convulsant Activity (mice): relative anticonvulsant potency", "setting": "[2]", "result": "2.5-5.0"}, {"measurement": "Potency as antagonist of NMDA compared with AP5 and AP7", "setting": "[4]", "result": "more potent"}]}
{"molecule": "NC(CCCCCP(=O)(O)O)C(=O)O", "note": "(racemic) [AP7, 2-amino-7-phosphonoheptanoic acid, reference compound]", "values": [{"measurement": "Depression of NMDA-induced excitation in rat spinal cord: relative potency (NMDA)", "setting": "neuronal NMDA receptors", "result": 0.75}, {"measurement": "inhibition at 3 µM", "setting": "[1]; polysynaptic component, test conc. 3 μM, 4-8 day old rat spinal cord, read-out: Synaptic Excitation Percent depression PS", "result": 28, "unit": "%"}, {"measurement": "Depression of synaptic excitation in rat spinal cord: relative potency (Synaptic)", "setting": "[3]", "result": 0.75}]}
{"molecule": "O=C(O)C1NCCN(C(=O)c2ccc(Br)cc2)C1C(=O)O", "note": "(centres unmarked) [BBP, 4-(4-bromobenzoyl)-piperazine-2,3-dicarboxylic acid]", "values": [{"measurement": "Potency as depressant of monosynaptic excitation compared with γDGG", "setting": "[1]; Table 2", "result": "more potent as a depressant of monosynaptic excitation"}, {"measurement": "inhibition at 100 µM", "setting": "[1]; [6]", "result": 24, "unit": "%"}, {"measurement": "inhibition at 100 µM", "setting": "[1]; [7]", "result": 8, "unit": "%"}, {"measurement": "Potency as antagonist of quisqualate-induced depolarizations compared with γDGG", "setting": "[5]", "result": "more potent antagonist"}, {"measurement": "Potency as antagonist of kainate-induced depolarizations compared with γDGG", "setting": "kainate (K) receptors", "result": "more potent antagonist"}]}
